Assays:
[1] = target: T1, RARα (Homo sapiens, UniProt P10276); assay: co-transfection assay (RAR/RXR agonist activity, luciferase reporter in CV-1 cells); type: cell-based; conditions: read-out: RARα Pot
T1 sequence (P10276 1-462): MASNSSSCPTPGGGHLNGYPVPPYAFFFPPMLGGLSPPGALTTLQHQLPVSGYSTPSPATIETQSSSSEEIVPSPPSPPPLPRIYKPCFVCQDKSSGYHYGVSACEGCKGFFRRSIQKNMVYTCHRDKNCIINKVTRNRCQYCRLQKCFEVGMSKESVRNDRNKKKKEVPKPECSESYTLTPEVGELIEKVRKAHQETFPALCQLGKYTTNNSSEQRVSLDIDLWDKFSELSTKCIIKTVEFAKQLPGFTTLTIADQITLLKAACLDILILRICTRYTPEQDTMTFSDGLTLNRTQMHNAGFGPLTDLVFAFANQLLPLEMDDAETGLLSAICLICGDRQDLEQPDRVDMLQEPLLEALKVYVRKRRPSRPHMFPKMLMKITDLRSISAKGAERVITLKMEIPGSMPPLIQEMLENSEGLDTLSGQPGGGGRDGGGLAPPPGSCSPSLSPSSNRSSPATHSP

[2] = target: T2, RXRα (Homo sapiens, UniProt P19793); assay: as above; type: cell-based; conditions: read-out: RXRα Pot
T2 sequence (P19793 1-462): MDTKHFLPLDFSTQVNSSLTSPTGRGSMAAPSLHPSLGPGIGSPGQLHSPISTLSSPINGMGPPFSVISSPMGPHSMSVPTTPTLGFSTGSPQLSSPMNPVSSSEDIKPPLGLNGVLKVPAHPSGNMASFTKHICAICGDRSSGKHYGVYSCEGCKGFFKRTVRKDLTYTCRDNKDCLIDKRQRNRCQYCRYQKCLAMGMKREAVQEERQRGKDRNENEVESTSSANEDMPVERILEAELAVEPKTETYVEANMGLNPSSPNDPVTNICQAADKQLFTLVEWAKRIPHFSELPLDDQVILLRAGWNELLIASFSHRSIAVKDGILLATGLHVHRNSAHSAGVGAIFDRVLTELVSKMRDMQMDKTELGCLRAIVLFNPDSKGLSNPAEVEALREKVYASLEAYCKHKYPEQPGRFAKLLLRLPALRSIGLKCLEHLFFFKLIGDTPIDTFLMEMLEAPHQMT

[3] = target: T3, RXRβ (Mus musculus, UniProt P28704); assay: as above; type: cell-based; conditions: read-out: RXRβ Pot
T3 sequence (P28704 1-520): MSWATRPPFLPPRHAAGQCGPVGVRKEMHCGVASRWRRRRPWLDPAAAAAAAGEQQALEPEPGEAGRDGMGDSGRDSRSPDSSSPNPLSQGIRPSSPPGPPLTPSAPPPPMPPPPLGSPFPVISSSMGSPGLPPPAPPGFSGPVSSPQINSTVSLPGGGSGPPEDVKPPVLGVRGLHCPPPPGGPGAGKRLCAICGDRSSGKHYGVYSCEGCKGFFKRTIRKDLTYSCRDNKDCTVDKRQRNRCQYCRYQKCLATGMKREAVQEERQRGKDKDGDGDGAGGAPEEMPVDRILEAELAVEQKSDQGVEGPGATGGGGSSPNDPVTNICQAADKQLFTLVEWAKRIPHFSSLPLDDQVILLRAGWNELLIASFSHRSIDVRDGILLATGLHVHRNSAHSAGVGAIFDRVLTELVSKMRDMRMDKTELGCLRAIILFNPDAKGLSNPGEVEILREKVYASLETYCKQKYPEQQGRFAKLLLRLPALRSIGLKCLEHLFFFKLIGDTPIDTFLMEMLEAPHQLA

[4] = target: T4, RXRγ (Mus musculus, UniProt P28705); assay: as above; type: cell-based; conditions: read-out: RXRγ Pot
T4 sequence (P28705 1-463): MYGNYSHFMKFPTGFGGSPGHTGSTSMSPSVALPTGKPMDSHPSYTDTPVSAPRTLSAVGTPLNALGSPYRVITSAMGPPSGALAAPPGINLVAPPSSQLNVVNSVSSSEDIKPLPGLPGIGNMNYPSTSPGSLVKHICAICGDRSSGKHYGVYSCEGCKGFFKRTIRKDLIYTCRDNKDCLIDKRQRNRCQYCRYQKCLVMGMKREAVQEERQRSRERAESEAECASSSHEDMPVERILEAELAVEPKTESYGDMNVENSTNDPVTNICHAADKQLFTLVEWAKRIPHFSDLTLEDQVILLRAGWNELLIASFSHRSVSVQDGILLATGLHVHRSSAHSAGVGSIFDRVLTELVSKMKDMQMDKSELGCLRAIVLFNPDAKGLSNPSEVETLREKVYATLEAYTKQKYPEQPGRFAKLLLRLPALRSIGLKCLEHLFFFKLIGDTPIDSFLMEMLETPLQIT

[5] = target: T1, RARα; assay: competitive binding of tritiated retinoids to retinoid receptors; conditions: competition with tritiated retinoid, Cheng-Prussof equation
[6] = target: T5, RARβ (Homo sapiens, UniProt P10826); assay: as above; conditions: competition with tritiated retinoid, Cheng-Prussof equation
T5 sequence (P10826 1-455): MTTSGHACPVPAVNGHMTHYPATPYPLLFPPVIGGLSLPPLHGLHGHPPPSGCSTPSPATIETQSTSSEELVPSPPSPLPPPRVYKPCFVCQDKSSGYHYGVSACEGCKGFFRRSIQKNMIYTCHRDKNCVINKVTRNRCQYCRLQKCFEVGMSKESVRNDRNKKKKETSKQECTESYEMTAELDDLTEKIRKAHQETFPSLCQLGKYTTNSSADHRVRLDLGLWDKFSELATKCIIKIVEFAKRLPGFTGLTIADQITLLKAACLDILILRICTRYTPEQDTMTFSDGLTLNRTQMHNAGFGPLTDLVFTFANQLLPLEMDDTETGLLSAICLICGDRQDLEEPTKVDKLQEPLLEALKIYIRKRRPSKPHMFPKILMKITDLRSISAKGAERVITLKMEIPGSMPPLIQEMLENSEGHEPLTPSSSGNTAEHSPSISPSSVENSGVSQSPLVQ

[7] = target: T2, RXRα; assay: as above; conditions: competition with tritiated retinoid, Cheng-Prussof equation
[8] = target: T3, RXRβ; assay: as above; conditions: competition with tritiated retinoid, Cheng-Prussof equation
[9] = target: T4, RXRγ; assay: as above; conditions: competition with tritiated retinoid, Cheng-Prussof equation
[10] = tested on: RPMI 8226 cell line; assay: incorporation of 3H-thymidine (antiproliferative); type: cell-based; conditions: Homo sapiens, 96 hours, radiolabeled thymidine incorporation, read-out: TdR IC50
[11] = tested on: AML-193 cell line; assay: viability (tetrazolium dye, mitochondrial function); type: cell-based; conditions: Homo sapiens, 96 hours, read-out: MTS IC50
[12] = tested on: AML-193 cell line; assay: incorporation of 3H-thymidine (antiproliferative); conditions: Homo sapiens, 96 h, read-out: TdR IC50 (nM)

SMILES | EC50 [1] | EC50 [2] | EC50 [3] | EC50 [4] | Kd [5] | Kd [6] | Kd [7] | Kd [8] | Kd [9] | IC50 [10] | IC50 [11] | IC50 [12]
CC(/C=C/C=C1/CCCc2cc3c(cc21)C(C)(C)CCC3(C)C)=C\C(=O)O [Compound 101b, (2E,4E)-3-Methyl-6-[(Z)-3,4,5,6,7,8-hexahydro-5,5,8,8-tetramethyl-2H-anthracen-1-ylidene]hexa-2,4-dienoic acid] | 32 nM | 35 nM | 55 nM | 41 nM | 225 nM | 299 nM | 34 nM | 30 nM | 48 nM | 6 nM | 1000 nM | 37 nM
CC(/C=C/CN1CCCCc2cc3c(cc21)C(C)(C)CCC3(C)C)=C\C(=O)O [Compound 138b, (2E,4E)-3-Methyl-6-[7,7,10,10-tetramethyl-2,3,4,5,7,8,9,10-octahydronaphtho[2,3-6]azepinyl)hexa-2,4-dienoic acid] | > 10000 nM | 422 nM | 204 nM | 301 nM | > 1000 nM | > 1000 nM | 136 nM | 276 nM | 508 nM | – | – | –
CC(/C=C/C=C1\CCCc2cc3c(cc21)C(C)(C)CCC3(C)C)=C\C(=O)O [Compound 109b, (2E,4E)-3-Methyl-6-[(E)-3,4,5,6,7,8-hexahydro-5,5,8,8-tetramethyl-2H-anthracen-1-ylidene]hexa-2,4-dienoic acid] | 28 nM | 2020 nM | 64 nM | 2270 nM | 33 nM | 68 nM | 340 nM | 332 nM | 382 nM | 0.05 nM | 1000 nM | 500 nM

The next compounds have a lower EC50 [1] than those just listed; values first:

EC50 [1] | EC50 [2] | EC50 [3] | EC50 [4] | Kd [5] | Kd [6] | Kd [7] | Kd [8] | Kd [9] | SMILES | IC50 [10] | IC50 [11] | IC50 [12]
20 nM | 1660 nM | 1140 nM | 742 nM | 24 nM | 50 nM | 246 nM | 372 nM | 398 nM | CC(/C=C/C=C1\CCOc2cc3c(cc21)C(C)(C)CCC3(C)C)=C\C(=O)O [Compound 119b, (2E,4E)-3-Methyl-6-[(E)-2,3,6,7,8,9-hexahydro-6,6,9,9-tetramethylbenzo[g]chromen-4-ylidene]hexa-2,4-dienoic acid] | 0.5 nM | 1000 nM | 0.6 nM
14 nM | 36 nM | 45 nM | 40 nM | 145 nM | 313 nM | 59 nM | 146 nM | 85 nM | CC(/C=C/C=C1/CCOc2cc3c(cc21)C(C)(C)CCC3(C)C)=C\C(=O)O [Compound 144b] | 0.6 nM | 1000 nM | 0.6 nM
